# Test system: 229E human corona virus (hCoV)
# Assay: 229E live virus assay (CPE, ATPlite readout in MRC-5 cells)
# Format: cell-based, hCoV-229E
# Settings: MOI 0.05, ATPlite readout, run in duplicate
# [1] = Human coronavirus 229E, MRC5, hCoV-229E live virus
SMILES,EC50 [1] [nM],EC50 (hCoV-229E live virus) [nM]
CC(C)C[C@@H](C(=O)N1C[C@]2(C[C@H]1C#N)C(=O)Nc1ccccc12)N(C)C(=O)c1nc2ccccc2n1C [Example 282],< 100,–
CC(C)C[C@@H](C(=O)N1C[C@]2(C[C@H]1C#N)C(=O)Nc1ccccc12)N(C)C(=O)c1cn(-c2ccc(F)cc2)nn1 [Example 283],< 100,–
CC(C)C[C@@H](C(=O)N1C[C@]2(C[C@H]1C#N)C(=O)Nc1ccccc12)N(C)C(=O)c1cn(-c2ccc(Cl)cc2)nn1 [Example 284],< 100,–
CC(C)C[C@@H](C(=O)N1C[C@]2(C[C@H]1C#N)C(=O)Nc1ccccc12)N(C)C(=O)c1ccc2cccnc2c1O [Example 285],< 100,–
CC(C)C[C@@H](C(=O)N1C[C@]2(C[C@H]1C#N)C(=O)Nc1ccccc12)N(C)C(=O)c1cn(-c2cccc(Cl)c2)nn1 [Example 286],< 100,–
CC(C)C[C@@H](C(=O)N1C[C@]2(C[C@H]1C#N)C(=O)Nc1ccccc12)N(C)C(=O)c1n[nH]c(-c2ccccc2)n1 [Example 288],< 100,–
CC(C)C[C@@H](C(=O)N1C[C@]2(C[C@H]1C#N)C(=O)Nc1ccccc12)N(C)C(=O)c1cc(F)c2nn(C)cc2c1 [Example 309],< 100,–
CC(C)C[C@@H](C(=O)N1C[C@]2(C[C@H]1C#N)C(=O)Nc1ccccc12)N(C)C(=O)c1cc(OC2CC2)c2nc(Cl)ccc2c1 [Example 310],100 to 1000,–
CC(C)C[C@@H](C(=O)N1C[C@]2(C[C@H]1C#N)C(=O)Nc1ccccc12)N(C)C(=O)c1cc(F)c2nn(C3CC3)cc2c1 [Example 311],< 100,–
CC(C)C[C@@H](C(=O)N1C[C@]2(C[C@H]1C#N)C(=O)Nc1ccccc12)N(C)C(=O)c1cc(OC2CC2)c2ncccc2c1 [Example 312],100 to 1000,–
CC(C)C[C@@H](C(=O)N1C[C@]2(C[C@H]1C#N)C(=O)Nc1ccccc12)N(C)C(=O)c1cc(OC2CC2)n2nc(C3CC3)c(C(=O)C(F)(F)F)c2c1 [Example 313],> 1000,–
CC(C)C[C@@H](C(=O)N1C[C@]2(C[C@H]1C#N)C(=O)Nc1ccccc12)N(C)C(=O)c1cc(F)c2nc(C3CC3)c(C(=O)C(F)(F)F)n2c1 [Example 314],< 100,–
CC(C)C[C@@H](C(=O)N1C[C@]2(C[C@H]1C#N)C(=O)Nc1ccccc12)N(C)C(=O)c1cc(OC2CC2)n2nc(C3CC3)cc2c1 [Example 315],100 to 1000,–
CC(C)C[C@@H](C(=O)N1C[C@]2(C[C@H]1C#N)C(=O)Nc1ccccc12)N(C)C(=O)c1cc(Cl)c2nn(C3CC3)cc2c1 [Example 316],< 100,–
CC(C)C[C@@H](C(=O)N1C[C@]2(C[C@H]1C#N)C(=O)Nc1ccccc12)N(C)C(=O)c1cc(OC2CC2)c2nc(C3CC3)sc2c1 [Example 317],100 to 1000,–
CC(C)C[C@@H](C(=O)N1C[C@]2(C[C@H]1C#N)C(=O)Nc1ccccc12)N(C)C(=O)c1cc(F)c2nc(C3CC3)cn2c1 [Example 318],< 100,–
COc1cc(C(=O)N(C)[C@@H](CC(C)C)C(=O)N2C[C@]3(C[C@H]2C#N)C(=O)Nc2ccccc23)cc2cn(C3(C)CC3)nc12 [Example 319],< 100,–
COc1cc(C(=O)N(C)[C@@H](CC(C)C)C(=O)N2C[C@]3(C[C@H]2C#N)C(=O)Nc2ccccc23)cc2cn(C3CCC3)nc12 [Example 320],100 to 1000,–
Cc1ccc2cc(C(=O)N(C)[C@@H](CC(C)C)C(=O)N3C[C@]4(C[C@H]3C#N)C(=O)Nc3ccccc34)cc(OC3CC3)c2n1 [Example 321],100 to 1000,–

SMILES,EC50 [1] [nM],EC50 (hCoV-229E live virus) [nM]
CC(C)C[C@@H](C(=O)N1C[C@]2(C[C@H]1C#N)C(=O)Nc1ccccc12)N(C)C(=O)c1cc(OC(F)(F)F)c2ncccc2c1 [Example 322],< 100,–
Cc1cc2cc(C(=O)N(C)[C@@H](CC(C)C)C(=O)N3C[C@]4(C[C@H]3C#N)C(=O)Nc3ccccc34)cc(OC3CC3)c2nc1C [Example 323],100 to 1000,–
CC(C)C[C@@H](C(=O)N1C[C@]2(C[C@H]1C#N)C(=O)Nc1ccccc12)N(C)C(=O)c1cc(OC2CC2)c2ncc(C3CC3)cc2c1 [Example 324],100 to 1000,–
Cc1cc(F)c(C(=O)N(C)[C@@H](CC(C)C)C(=O)N2C[C@]3(C[C@H]2C#N)C(=O)Nc2ccccc23)cc1-c1cnn(C2CC2)c1 [Example 342],100 to 1000,–
CC(C)C[C@@H](C(=O)N1C[C@]2(C[C@H]1C#N)C(=O)Nc1ccccc12)N(C)C(=O)c1ccc(OC2CC2)c(-c2cccnc2)c1 [Example 343],100 to 1000,–
CC(C)C[C@@H](C(=O)N1C[C@]2(C[C@H]1C#N)C(=O)Nc1ccccc12)N(C)C(=O)[C@H]1CCN(C(=O)OC(C)(C)C)C1 [Example 344],100 to 1000,–
CC(C)C[C@@H](C(=O)N1C[C@]2(C[C@H]1C#N)C(=O)Nc1ccccc12)N(C)C(=O)[C@@H]1CCN(C(=O)OC(C)(C)C)C1 [Example 345],–,< 100
CC(C)C[C@@H](C(=O)N1C[C@]2(C[C@H]1C#N)C(=O)Nc1ccccc12)N(C)C(=O)[C@@H](c1cnn(C)c1)C(C)C [Example 348],100 to 1000,–
CC(C)C[C@@H](C(=O)N1C[C@]2(C[C@H]1C#N)C(=O)Nc1ccccc12)N(C)C(=O)[C@H](c1cnn(C)c1)C(C)C [Example 349],100 to 1000,–
CC(C)C[C@@H](C(=O)N1C[C@]2(C[C@H]1C#N)C(=O)Nc1ccccc12)N(C)C(=O)[C@@H](c1cn(C)nn1)C(C)C [Example 350],100 to 1000,–
CC(C)C[C@@H](C(=O)N1C[C@]2(C[C@H]1C#N)C(=O)Nc1ccccc12)N(C)C(=O)[C@H](c1cn(C)nn1)C(C)C [Example 351],100 to 1000,–
CC(C)C[C@@H](C(=O)N1C[C@]2(C[C@H]1C#N)C(=O)Nc1ccccc12)N(C)C(=O)c1cnn(C(C)(C)C)c1 [Example 352],< 100,–
CC(C)C[C@@H](C(=O)N1C[C@]2(C[C@H]1C#N)C(=O)Nc1ccccc12)N(C)C(=O)c1cnn(-c2ccccc2C(F)(F)F)c1 [Example 353],< 100,–
CC(C)C[C@@H](C(=O)N1C[C@]2(C[C@H]1C#N)C(=O)Nc1ccccc12)N(C)C(=O)c1nnc(C2CC2)o1 [Example 354],< 100,–
CC(C)C[C@@H](C(=O)N1C[C@]2(C[C@H]1C#N)C(=O)Nc1ccccc12)N(C)C(=O)c1nnc(-c2ccc(F)cc2)o1 [Example 355],< 100,–
CC(C)C[C@@H](C(=O)N1C[C@]2(C[C@H]1C#N)C(=O)Nc1ccccc12)N(C)C(=O)c1nnn(C(C)(C)C)n1 [Example 356],< 100,–
COc1cccc2[nH]c(C(=O)N(C)[C@@H](COC(C)(C)C)C(=O)N3C[C@]4(C[C@H]3C#N)C(=O)Nc3ccccc34)cc12 [Example 370],< 100,–
CN(C(=O)c1cc2c(F)cc(F)cc2[nH]1)[C@@H](COC(C)(C)C)C(=O)N1C[C@]2(C[C@H]1C#N)C(=O)Nc1ccccc12 [Example 371],< 100,–
C[C@@H](C(=O)N(C)[C@@H](CC(C)(C)C)C(=O)N1C[C@]2(C[C@H]1C#N)C(=O)Nc1ccccc12)c1cnn(C)c1 [Example 372],< 100,–

SMILES,EC50 [1] [nM],EC50 (hCoV-229E live virus) [nM]
C[C@H](C(=O)N(C)[C@@H](CC(C)(C)C)C(=O)N1C[C@]2(C[C@H]1C#N)C(=O)Nc1ccccc12)c1cnn(C)c1 [Example 373],100 to 1000,–
CN(C(=O)C(F)(F)F)[C@@H](CC(C)(C)C)C(=O)N1C[C@]2(C[C@H]1C#N)C(=O)Nc1ccccc12 [Example 374],100 to 1000,–
CN(C(=O)c1cc2c(OC3CC3)cccc2[nH]1)[C@@H](CC(C)(C)C)C(=O)N1C[C@]2(C[C@H]1C#N)C(=O)Nc1ccccc12 [Example 375],< 100,–
[2H]C([2H])([2H])N(C(=O)c1nc(-c2ccccc2)c[nH]1)[C@@H](CC(C)(C)C)C(=O)N1C[C@]2(C[C@H]1C#N)C(=O)Nc1ccccc12 [Example 376],< 100,–
[2H]C([2H])([2H])N(C(=O)c1cn(-c2ccc(Cl)cc2)nn1)[C@@H](CC(C)(C)C)C(=O)N1C[C@]2(C[C@H]1C#N)C(=O)Nc1ccccc12 [Example 377],< 100,–
[2H]C([2H])([2H])N(C(=O)c1cn(C2CC2)nn1)[C@@H](CC(C)(C)C)C(=O)N1C[C@]2(C[C@H]1C#N)C(=O)Nc1ccccc12 [Example 378],< 100,–
[2H]C([2H])([2H])N(C(=O)c1cn(C2CCC2)nn1)[C@@H](CC(C)(C)C)C(=O)N1C[C@]2(C[C@H]1C#N)C(=O)Nc1ccccc12 [Example 379],< 100,–
[2H]C([2H])([2H])N(C(=O)c1cn(CC(F)(F)F)nn1)[C@@H](CC(C)(C)C)C(=O)N1C[C@]2(C[C@H]1C#N)C(=O)Nc1ccccc12 [Example 380],< 100,–
[2H]C([2H])([2H])N(C(=O)c1ccc2ncc(C(F)(F)F)cc2c1)[C@@H](CC(C)(C)C)C(=O)N1C[C@]2(C[C@H]1C#N)C(=O)Nc1ccccc12 [Example 381],< 100,–
[2H]C([2H])([2H])N(C(=O)c1cc(OC(F)(F)F)c2ncccc2c1)[C@@H](CC(C)(C)C)C(=O)N1C[C@]2(C[C@H]1C#N)C(=O)Nc1ccccc12 [Example 382],< 100,–
[2H]C([2H])([2H])N(C(=O)c1cc(OC(F)F)c2ncccc2c1)[C@@H](CC(C)(C)C)C(=O)N1C[C@]2(C[C@H]1C#N)C(=O)Nc1ccccc12 [Example 383],< 100,–
CN(C(=O)c1cn(C(C)(C)C)nn1)[C@@H](CC1CC1)C(=O)N1C[C@]2(C[C@H]1C#N)C(=O)Nc1ccccc12 [Example 402],< 100,–
CN(C(=O)c1cc2c(F)cc(F)c(F)c2[nH]1)[C@@H](CCC(C)(C)C)C(=O)N1C[C@]2(C[C@H]1C#N)C(=O)Nc1ccccc12 [Example 412],< 100,–
CCCOC[C@@H](C(=O)N1C[C@]2(C[C@H]1C#N)C(=O)Nc1ccccc12)N(C)C(=O)c1cc2c(F)cc(F)cc2[nH]1 [Example 413],< 100,–
CN(C(=O)[C@H](O)C(C)(C)C)[C@@H](CC1CC1)C(=O)N1C[C@]2(C[C@H]1C#N)C(=O)Nc1ccccc12 [Example 417],< 100,–
CCCC[C@H](NC(=O)[C@@H](O)c1ccc(F)cc1)C(=O)N1C[C@]2(C[C@H]1C#N)C(=O)Nc1ccccc12 [Example 418],100 to 1000,–
CCCC[C@H](NC(=O)[C@H](O)c1ccc(F)cc1)C(=O)N1C[C@]2(C[C@H]1C#N)C(=O)Nc1ccccc12 [Example 419],100 to 1000,–
CN(C(=O)[C@H](O)Cc1ccc(F)cc1)[C@@H](CC1CC1)C(=O)N1C[C@]2(C[C@H]1C#N)C(=O)Nc1ccccc12 [Example 423],< 100,–
CC(C)C[C@@H](O)C(=O)N(C)[C@@H](CC1CC1)C(=O)N1C[C@]2(C[C@H]1C#N)C(=O)Nc1ccccc12 [Example 424],< 100,–
